Source: PubChem BioAssay (NCI)
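Interpolation was linear, between the two tested concentrations surrounding the appropriate level; five concentrations were tested over 48 hours in 96-well plates. TGI is the concentration that stops growth completely.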

How the values were obtained:
Assay in all cases: inhibition of tumour cell growth, NCI panel, 48 h
[1] = test system: KM12 colon
[2] = test system: DU-145 prostate
[3] = test system: IGROV1 ovarian
[4] = test system: SK-OV-3 ovarian
[5] = test system: OVCAR-4 ovarian
[6] = test system: A549 NSCLC
[7] = test system: HT29 colon
[8] = test system: 786-0 renal
[9] = test system: UO-31 renal
[10] = test system: T-47D breast
[11] = test system: PC-3 prostate
[12] = test system: SK-MEL-2 melanoma
[13] = test system: HOP-62 NSCLC
[14] = test system: NCI/ADR-RES ovarian
[15] = test system: NCI-H460 lung
[16] = test system: HCT-15 colon
[17] = test system: RXF 393 renal
[18] = test system: MOLT-4 leukemia
[19] = test system: RPMI-8226 leukemia
[20] = test system: SF-539 CNS
[21] = test system: EKVX NSCLC
[22] = test system: SK-MEL-5 melanoma
[23] = test system: UACC-62 melanoma
[24] = test system: LOX IMVI melanoma
[25] = test system: OVCAR-5 ovarian
[26] = test system: COLO 205 colon
[27] = test system: MDA-MB-231 breast
[28] = test system: SNB-75 CNS
[29] = test system: OVCAR-8 ovarian
[30] = test system: OVCAR-3 ovarian
[31] = test system: MDA-MB-435
[32] = test system: MDA-N
[33] = test system: MALME-3M melanoma
[34] = test system: SNB-19 CNS
[35] = test system: HCT-116 colon
[36] = test system: SF-295 CNS
[37] = test system: SW-620 colon
[38] = test system: UACC-257 melanoma
[39] = test system: NCI-H226 lung
[40] = test system: ACHN renal
[41] = test system: SK-MEL-28 melanoma
[42] = test system: TK-10 renal
[43] = test system: M14 melanoma
[44] = test system: MCF7 breast
[45] = test system: HOP-92 NSCLC
[46] = test system: SF-268 CNS
[47] = test system: NCI-H23 lung
[48] = test system: CAKI-1 renal
[49] = test system: U251 CNS
[50] = test system: HS 578T breast
[51] = test system: HCC-2998 colon
[52] = test system: SN12C renal
[53] = test system: BT-549 breast
[54] = test system: A498 renal
[55] = test system: CCRF-CEM leukemia
[56] = test system: K-562 leukemia
[57] = test system: SR leukemia
[58] = test system: HL-60(TB) leukemia
[59] = test system: NCI-H522 lung

CC(C)(/C=N/O)/[N+]([O-])=C/c1ccccc1
TGI [1]: > 100 µM | TGI [2]: > 100 µM | TGI [3]: > 100 µM | TGI [4]: > 100 µM | TGI [5]: > 100 µM | TGI [6]: > 100 µM | TGI [7]: > 100 µM | TGI [8]: > 100 µM | TGI [9]: > 100 µM | TGI [10]: > 100 µM | TGI [11]: > 100 µM | TGI [12]: > 100 µM | TGI [13]: > 100 µM | TGI [14]: > 100 µM | TGI [15]: > 100 µM | TGI [16]: > 100 µM | TGI [17]: > 100 µM | TGI [18]: > 100 µM | TGI [19]: > 100 µM | TGI [20]: > 100 µM | TGI [21]: > 100 µM | TGI [22]: > 100 µM | TGI [23]: > 100 µM | TGI [24]: > 100 µM | TGI [25]: > 100 µM | TGI [26]: > 100 µM | TGI [27]: > 100 µM | TGI [28]: > 100 µM | TGI [29]: > 100 µM | TGI [30]: > 100 µM | TGI [31]: > 100 µM | TGI [32]: > 100 µM | TGI [33]: > 100 µM | TGI [34]: > 100 µM | TGI [35]: > 100 µM | TGI [36]: > 100 µM | TGI [37]: > 100 µM | TGI [38]: > 100 µM | TGI [39]: > 100 µM | TGI [40]: > 100 µM | TGI [41]: > 100 µM | TGI [42]: > 100 µM | TGI [43]: > 100 µM | TGI [44]: > 100 µM | TGI [45]: > 100 µM | TGI [46]: > 100 µM | TGI [47]: > 100 µM | TGI [48]: > 100 µM | TGI [49]: > 100 µM | TGI [50]: > 100 µM | TGI [51]: > 100 µM | TGI [52]: > 100 µM

Cn1c(=O)oc2cc(C(=S)N3CCCCC3)ccc21
TGI [1]: > 100 µM | TGI [2]: > 100 µM | TGI [3]: > 100 µM | TGI [4]: > 100 µM | TGI [53]: > 100 µM | TGI [7]: > 100 µM | TGI [8]: > 100 µM | TGI [11]: > 100 µM | TGI [12]: > 100 µM | TGI [13]: > 100 µM | TGI [54]: > 100 µM | TGI [14]: > 100 µM | TGI [15]: > 100 µM | TGI [16]: > 100 µM | TGI [17]: > 100 µM | TGI [18]: > 100 µM | TGI [19]: > 100 µM | TGI [20]: > 100 µM | TGI [21]: > 100 µM | TGI [22]: > 100 µM | TGI [23]: > 100 µM | TGI [24]: > 100 µM | TGI [25]: > 100 µM | TGI [26]: > 100 µM | TGI [55]: > 100 µM | TGI [27]: > 100 µM | TGI [28]: > 100 µM | TGI [29]: > 100 µM | TGI [30]: > 100 µM | TGI [31]: > 100 µM | TGI [32]: > 100 µM | TGI [56]: > 100 µM | TGI [33]: > 100 µM | TGI [34]: > 100 µM | TGI [35]: > 100 µM | TGI [36]: > 100 µM | TGI [37]: > 100 µM | TGI [38]: > 100 µM | TGI [39]: > 100 µM | TGI [40]: > 100 µM | TGI [41]: > 100 µM | TGI [57]: > 100 µM | TGI [42]: > 100 µM | TGI [43]: > 100 µM | TGI [44]: > 100 µM | TGI [46]: > 100 µM | TGI [47]: > 100 µM | TGI [48]: > 100 µM | TGI [49]: > 100 µM | TGI [58]: > 100 µM | TGI [50]: > 100 µM | TGI [52]: > 100 µM

COc1c(C)c(C/C=C(\C)CCCCO)c(OC)c2ccccc12
TGI [1]: 54.9 µM | TGI [2]: > 100 µM | TGI [3]: > 100 µM | TGI [4]: > 100 µM | TGI [5]: > 100 µM | TGI [53]: > 100 µM | TGI [6]: > 100 µM | TGI [7]: 43.7 µM | TGI [8]: > 100 µM | TGI [9]: > 100 µM | TGI [11]: > 100 µM | TGI [12]: > 100 µM | TGI [14]: > 100 µM | TGI [15]: 37.8 µM | TGI [16]: > 100 µM | TGI [17]: > 100 µM | TGI [18]: 43.1 µM | TGI [19]: > 100 µM | TGI [20]: > 100 µM | TGI [21]: > 100 µM | TGI [22]: 39.5 µM | TGI [23]: > 100 µM | TGI [24]: 37.6 µM | TGI [25]: > 100 µM | TGI [26]: > 100 µM | TGI [55]: 63 µM | TGI [27]: > 100 µM | TGI [28]: > 100 µM | TGI [29]: > 100 µM | TGI [30]: > 100 µM | TGI [31]: 99.2 µM | TGI [32]: > 100 µM | TGI [56]: 67.1 µM | TGI [34]: > 100 µM | TGI [35]: 88.2 µM | TGI [36]: > 100 µM | TGI [37]: > 100 µM | TGI [38]: > 100 µM | TGI [40]: > 100 µM | TGI [57]: 55.6 µM | TGI [42]: > 100 µM | TGI [43]: > 100 µM | TGI [44]: > 100 µM | TGI [45]: 80.4 µM | TGI [59]: 42.3 µM | TGI [46]: > 100 µM | TGI [47]: 94.2 µM | TGI [48]: 94.9 µM | TGI [49]: > 100 µM | TGI [50]: > 100 µM | TGI [51]: 62.5 µM | TGI [52]: 52.9 µM

CCOC(=O)CCC(C(=O)OCC)n1nnc2ccc(Nc3c(C)[n+]([O-])c4cc(F)c(OCC)cc4[n+]3[O-])cc21 (configuration not stated)
TGI [1]: > 100 µM | TGI [2]: > 100 µM | TGI [3]: > 100 µM | TGI [4]: > 100 µM | TGI [5]: > 100 µM | TGI [53]: > 100 µM | TGI [6]: > 100 µM | TGI [7]: > 100 µM | TGI [8]: > 100 µM | TGI [9]: > 100 µM | TGI [10]: > 100 µM | TGI [11]: > 100 µM | TGI [12]: > 100 µM | TGI [13]: > 100 µM | TGI [54]: > 100 µM | TGI [14]: > 100 µM | TGI [15]: > 100 µM | TGI [16]: > 100 µM | TGI [17]: > 100 µM | TGI [18]: > 100 µM | TGI [19]: 54.3 µM | TGI [20]: 64.4 µM | TGI [21]: > 100 µM | TGI [22]: > 100 µM | TGI [23]: 43.1 µM | TGI [24]: > 100 µM | TGI [25]: > 100 µM | TGI [26]: 83.5 µM | TGI [55]: > 100 µM | TGI [28]: > 100 µM | TGI [29]: > 100 µM | TGI [30]: 67.4 µM | TGI [31]: > 100 µM | TGI [32]: > 100 µM | TGI [56]: > 100 µM | TGI [33]: > 100 µM | TGI [34]: > 100 µM | TGI [35]: > 100 µM | TGI [36]: > 100 µM | TGI [37]: > 100 µM | TGI [38]: 42 µM | TGI [39]: > 100 µM | TGI [40]: > 100 µM | TGI [57]: > 100 µM | TGI [42]: > 100 µM | TGI [43]: > 100 µM | TGI [44]: 68.6 µM | TGI [45]: > 100 µM | TGI [59]: > 100 µM | TGI [46]: > 100 µM | TGI [47]: > 100 µM | TGI [48]: > 100 µM | TGI [49]: > 100 µM | TGI [58]: > 100 µM | TGI [50]: > 100 µM | TGI [52]: > 100 µM
